{"source": "patent US20100179188A1", "about": "“NITROXIDE RADICAL AS TREATMENT FOR NEURODEGENERATION” (Office of Technology Transfer, NIH, priority 2007, published 2010)", "key": {"purified holo-IRP1": {"target": "T1, purified holo-IRP1 (Homo sapiens, UniProt P21399)", "T1 sequence (P21399 1-889)": "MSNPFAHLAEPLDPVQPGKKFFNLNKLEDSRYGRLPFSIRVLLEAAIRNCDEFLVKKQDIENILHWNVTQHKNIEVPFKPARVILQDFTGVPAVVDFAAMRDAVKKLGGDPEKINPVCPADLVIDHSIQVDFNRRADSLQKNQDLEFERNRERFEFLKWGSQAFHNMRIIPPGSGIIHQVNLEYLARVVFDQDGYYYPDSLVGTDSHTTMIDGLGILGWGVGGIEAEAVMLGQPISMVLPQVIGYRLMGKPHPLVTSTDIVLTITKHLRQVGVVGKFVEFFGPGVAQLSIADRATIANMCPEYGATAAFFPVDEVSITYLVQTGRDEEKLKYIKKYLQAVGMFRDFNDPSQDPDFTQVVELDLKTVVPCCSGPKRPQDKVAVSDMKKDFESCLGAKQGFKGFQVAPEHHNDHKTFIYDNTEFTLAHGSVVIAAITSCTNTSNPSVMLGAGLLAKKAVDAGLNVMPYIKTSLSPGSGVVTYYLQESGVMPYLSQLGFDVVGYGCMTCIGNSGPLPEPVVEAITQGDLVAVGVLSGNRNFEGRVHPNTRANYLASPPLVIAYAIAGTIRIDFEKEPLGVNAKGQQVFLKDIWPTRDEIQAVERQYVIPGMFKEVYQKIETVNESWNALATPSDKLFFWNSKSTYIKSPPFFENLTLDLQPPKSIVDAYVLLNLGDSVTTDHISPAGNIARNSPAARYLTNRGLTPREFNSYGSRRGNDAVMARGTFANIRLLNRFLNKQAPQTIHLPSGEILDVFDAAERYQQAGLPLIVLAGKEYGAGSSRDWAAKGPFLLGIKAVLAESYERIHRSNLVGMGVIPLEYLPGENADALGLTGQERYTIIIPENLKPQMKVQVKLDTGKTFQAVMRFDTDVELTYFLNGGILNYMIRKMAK", "assay": "IRE gel shift assay on purified holo-IRP1", "assay_type": "biochemical", "description": "RNA mobility shift assays: Gel retardation assays were performed as described in Meyron-Holtz et al., EMBO J, 23, 386-395 (2004). Tissue lysates were prepared in an anaerobic chamber as described above in oxygen-depleted lysis buffer containing 10 mM HEPES (pH 7.2), 3 mM MgC12, 40 mM KCl, 5% glycerol, 0.2% Nonidet P-40, 5 mM DTT, 1 mM AEBSF, 10 μg/ml. Leupeptin and complete TM EDTA free protease inhibitor cocktail (Roche Applied Science, Indiana). Lysate (x μl) containing 10 μg of total protein was added to (12.5−x) μl of bandshift buffer containing 25 mM Tris-HCl (pH 7.5) and 40 mM KCl. The samples were incubated for 5 min at room temperature (RT) with 12.5 μl of a reaction cocktail containing 20% glycerol, 0.2 U/μl Super RNAsine (Ambion, Tex.), 0.6 μg/μl yeast t-RNA, 5 mM DTT and 20 nM 32P-labelled IRE from human ferritin H-chain gene in 25 mM Tris-HCl (pH 7.5) and 40 mM KCl. A measure of 20 μl of this reaction mixture was loaded into a 10% acrylamide/TBE gel, which was run at 200 V for 2.15 h, and then the gel was fixed, dried and exposed for autoradiography.\nSoum et al., J. Biol Inorg Chem, 8, 226-232 (2003). IRE-binding activity of purified holo-IRP1 (11 ng) was assessed by an IRE gel shift assay. Purified protein (11 ng) was incubated with 0.1% β-mercaptoethanol for 2 h at room temperature without (lane 1) or with (lane 2) 1 mM tempol. Sample in lane 3 was treated with 2% β-mercaptoethanol for 2 min after 2 h incubation without tempol."}, "IRP1": {"test_system": "IRP1", "assay": "Western blot of IRP1 protein in IRP2−/− embryonic fibroblasts", "assay_type": "cell-based, mouse", "details": "0.3 and 1.0 mM, 16 h", "description": "Cells: Embryonic fibroblasts of 13-day old embryos were isolated from wild type, IRP1−/− mice and IRP2−/− mice as described in LaVaute et al. supra. Myc-tagged HEK 293 Tet-on cell line, in which IRP2 expression was inducible, was prepared and cultured as described Bourdon et al., Blood Cells Mol Dis, 31, 247-255 (2003). Erythroblasts were harvested from bone marrow and purified as described in Cooperman et al., Blood, 106, 1084-1091 (2005).\nWestern blotting and antibodies: Protein analysis was carried out as described in LaVaute et al., supra. Equal amounts of protein (20-40 μg/lane) were separated on 13% SDSPAGE and transferred to nitrocellulose membranes. The membrane was blocked with 5% non-fat milk, 0.1% Triton X-100 in PBS and probed at RT in the same blocking buffer. IRP1 antibody was prepared against purified hIRP1 and used at 1:5000 dilution. L-ferritin antibody was raised in rabbit from L-ferritin protein purified from mouse livers. […]\nTo study the effect of Tempo1 on the IRE-binding activity of IRP1, IRP2−/− embryonic fibroblasts that were maintained in culture supplemented with 0, 0.3 and 1.0 mM Tempo1, with or without ferric ammonium citrate (FAC), for 16 h. […] Quantification was performed with the IQMac (IRP1 activity) or NIH Image (protein levels) program. Error bars represent the standard deviation calculated from the results of two different sets of experiments."}, "IRP1+/− IRP2−/− mice": {"test_system": "IRP1+/− IRP2−/− mice", "assay": "Hang-test of IRP1+/− IRP2−/− mice on Tempo1-supplemented diet", "assay_type": "in vivo", "details": "FIG. 7c", "description": "Diet: The mice were weaned 3-4 weeks after their birth. Immediately after weaning, mice were maintained on either a Tempo1-supplemented or control diet. In the Tempo1-supplemented diet, powdered Tempo1 was uniformly mixed with bacon-flavored mouse chow by a “cold press” technique (Bio-Serv, Frenchtown, N.J., USA) at a concentration of 10 mg/g of food. Bacon-flavored chow without Tempo1 was used as the control diet.\nHang-test: In the hang-test, mice were allowed to grip a wire mesh that was then inverted. The length of time that a mouse could hang on to an inverted wire mesh before falling (up to a maximum of 60 seconds) was measured and recorded.\nHang-test results of WT, IRP2−/− and IRP1+/− IRP2−/− mice that indicated IRP1+/− IRP2−/− animals were more symptomatic than IRP2−/− animals. […] Error bars represent standard error of the mean. The curves were drawn by using the polynomial curve fit of the KaleidaGraph program."}}}
{"smiles": "CC1(C)CC(O)CC(C)(C)N1[O]", "note": "[Tempo1]", "values": [{"measurement": "recruitment of IRE-binding activity", "setting": "purified holo-IRP1; holo-IRP1, 1.0 mM, 3 h at 37° C., FIG. 6b", "value": "almost completely recruited"}, {"measurement": "IRE binding activity vs IRP1 exposed to room air alone", "setting": "purified holo-IRP1; purified holo-IRP1, 2 h at room temperature and 3 h at 37° C.", "value": "much higher"}, {"measurement": "IRE binding activity of IRP1", "setting": "purified holo-IRP1; purified holo-IRP1 treated with Tempo1", "value": "increased"}, {"measurement": "IRP1 levels", "setting": "IRP1", "value": "unchanged"}, {"measurement": "prevention of disease progression (hang-test)", "setting": "IRP1+/− IRP2−/− mice", "value": "did not significantly (p=0.559) prevent"}]}
